Results taken from PubChem BioAssay (NCI).
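Method: 48-hour compound exposure of cells in 96-well plates, five concentrations, linear interpolation of endpoints. Definition used: TGI = concentration required for complete inhibition of growth.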

How the values were obtained:
Test in all cases: growth of human tumour cells (NCI), 48 h
786-0 renal = test system: 786-0 renal
A498 renal = test system: A498 renal
A549 NSCLC = test system: A549 NSCLC
ACHN renal = test system: ACHN renal
BT-549 breast = test system: BT-549 breast
CAKI-1 renal = test system: CAKI-1 renal
CCRF-CEM leukemia = test system: CCRF-CEM leukemia
COLO 205 colon = test system: COLO 205 colon
DU-145 prostate = test system: DU-145 prostate
EKVX NSCLC = test system: EKVX NSCLC
HCC-2998 colon = test system: HCC-2998 colon
HCT-116 colon = test system: HCT-116 colon
HCT-15 colon = test system: HCT-15 colon
HL-60(TB) leukemia = test system: HL-60(TB) leukemia
HOP-62 NSCLC = test system: HOP-62 NSCLC
HS 578T breast = test system: HS 578T breast
HT29 colon = test system: HT29 colon
IGROV1 ovarian = test system: IGROV1 ovarian
K-562 leukemia = test system: K-562 leukemia
KM12 colon = test system: KM12 colon
LOX IMVI melanoma = test system: LOX IMVI melanoma
MALME-3M melanoma = test system: MALME-3M melanoma
MCF7 breast = test system: MCF7 breast
MDA-MB-231 breast = test system: MDA-MB-231 breast
MDA-MB-435 = test system: MDA-MB-435
MDA-N = test system: MDA-N
MOLT-4 leukemia = test system: MOLT-4 leukemia
NCI-H226 lung = test system: NCI-H226 lung
NCI-H23 lung = test system: NCI-H23 lung
NCI-H460 lung = test system: NCI-H460 lung
NCI-H522 lung = test system: NCI-H522 lung
NCI/ADR-RES ovarian = test system: NCI/ADR-RES ovarian
OVCAR-3 ovarian = test system: OVCAR-3 ovarian
OVCAR-4 ovarian = test system: OVCAR-4 ovarian
OVCAR-5 ovarian = test system: OVCAR-5 ovarian
OVCAR-8 ovarian = test system: OVCAR-8 ovarian
PC-3 prostate = test system: PC-3 prostate
RPMI-8226 leukemia = test system: RPMI-8226 leukemia
RXF 393 renal = test system: RXF 393 renal
SF-295 CNS = test system: SF-295 CNS
SF-539 CNS = test system: SF-539 CNS
SK-MEL-2 melanoma = test system: SK-MEL-2 melanoma
SK-MEL-28 melanoma = test system: SK-MEL-28 melanoma
SK-MEL-5 melanoma = test system: SK-MEL-5 melanoma
SK-OV-3 ovarian = test system: SK-OV-3 ovarian
SN12C renal = test system: SN12C renal
SNB-75 CNS = test system: SNB-75 CNS
SR leukemia = test system: SR leukemia
SW-620 colon = test system: SW-620 colon
T-47D breast = test system: T-47D breast
TK-10 renal = test system: TK-10 renal
U251 CNS = test system: U251 CNS
UACC-257 melanoma = test system: UACC-257 melanoma
UACC-62 melanoma = test system: UACC-62 melanoma
UO-31 renal = test system: UO-31 renal

Measured: TGI

Cc1cn(CC2(CO)CCC2)c(=O)[nH]c1=O
> 100 µM: all assays above
